Like-named read-outs stand apart in the source and are kept apart here.
What was measured:
Assay type in all cases: cell-based, Escherichia coli
EKO-35 araC::acrBD408A = assay: MIC susceptibility profiling, efflux platform; conditions: for Fold change of MICs: EKO-35 araC::acrBD408A compared to EKO-35; for MIC: Escherichia coli, Table 13B, non-porinated, technical duplicate, read-out: Minimum Inhibitory Concentration, EKO-35 araC::acrBD408A
Outline: (§1)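 Each compound was serially diluted twofold, in duplicate, and challenged with a 1/2000 dilution of PBS-washed cells (OD600 ~1.0) in MHB II. Plates were shaken at 37 °C for 18 h and OD600 was read at room temperature, with the baseline subtracted.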

EKO-35 araC::acrB = assay: MIC susceptibility profiling, efflux platform; conditions: for Fold change of MICs: EKO-35 araC::acrB compared to EKO-35; for MIC: Escherichia coli, Table 13A, non-porinated, technical duplicate, read-out: Minimum Inhibitory Concentration, EKO-35 araC::acrB
Outline: as §1

EKO-35 araC::acrD = assay: MIC susceptibility profiling, efflux platform; conditions: for Fold change of MICs: EKO-35 araC::acrD compared to EKO-35; for MIC: Escherichia coli, Table 13A, non-porinated, technical duplicate, read-out: Minimum Inhibitory Concentration, EKO-35 araC::acrD; for efflux pump-mediated resistance vs EKO-35: AcrD
Outline: as §1

EKO-35 araC::acrEF = assay: MIC susceptibility profiling, efflux platform; conditions: for Fold change of MICs: EKO-35 araC::acrEF compared to EKO-35; for MIC: Escherichia coli, Table 13A, non-porinated, technical duplicate, read-out: Minimum Inhibitory Concentration, EKO-35 araC::acrEF
Outline: as §1

EKO-35 araC::emrAB = assay: MIC susceptibility profiling, efflux platform; conditions: for Fold change of MICs: EKO-35 araC::emrAB compared to EKO-35; for MIC: Escherichia coli, Table 13B, non-porinated, technical duplicate, read-out: Minimum Inhibitory Concentration, EKO-35 araC::emrAB
Outline: as §1

EKO-35 araC::emrKY = assay: MIC susceptibility profiling, efflux platform; conditions: for Fold change of MICs: EKO-35 araC::emrKY compared to EKO-35; for MIC: Escherichia coli, Table 13B, non-porinated, technical duplicate, read-out: Minimum Inhibitory Concentration, EKO-35 araC::emrKY
Outline: as §1

EKO-35 araC::macAB = assay: MIC susceptibility profiling, efflux platform; conditions: for Fold change of MICs: EKO-35 araC::macAB compared to EKO-35; for MIC: Escherichia coli, Table 13B, non-porinated, technical duplicate, read-out: Minimum Inhibitory Concentration, EKO-35 araC::macAB
Outline: as §1

[1] = tested on: EKO-35 araC::mexCD (MexCD from P. aeruginosa); assay: MIC susceptibility profiling, efflux platform; conditions: for Fold change of MICs: EKO-35 araC::mexCD compared to EKO-35; for MIC: Table 13B, non-porinated, technical duplicate, read-out: Minimum Inhibitory Concentration, EKO-35 araC::mexCD
Outline: as §1

EKO-35 acrBD408A = tested on: EKO-35 acrBD408A
Outline: (§2)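 Interaction of PAβN or NMP with antibiotics is scored as FICI = CA/MICA + CB/MICB, from MICs (no growth, OD600) in MHB II checkerboard microdilution following CLSI. Solvent controls accompany every plate.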

EKO-35 = conditions: for interaction of PAβN in combination with the labelled antibiotic (FICI): efflux-deficient strains EKO-35, EKO-35 acrBD408A, ΔtolC
Outline: as §2

ΔtolC-Pore = tested on: ΔtolC-Pore
Outline: as §2

ΔtolC = tested on: ΔtolC
Outline: as §2

[2] = EKO-35 acrBD408A, NMP + antibiotic
[3] = EKO-35 acrBD408A, PAβN + antibiotic
[4] = EKO-35 acrBD408A, antibiotic alone (PAβN checkerboard)
[5] = EKO-35 acrBD408A, antibiotic in combination with PAβN
[6] = strain EKO-35 acrBD408A, NMP + antibiotic
[7] = strain EKO-35 acrBD408A, antibiotic alone
[8] = strain EKO-35 acrBD408A, antibiotic in combination with NMP
[9] = EKO-35, antibiotic alone (PAβN checkerboard)
[10] = EKO-35, antibiotic in combination with PAβN
[11] = strain EKO-35, NMP + antibiotic
[12] = strain EKO-35, antibiotic alone
[13] = strain EKO-35, antibiotic in combination with NMP
[14] = strain ΔtolC Pore, NMP + antibiotic
[15] = strain ΔtolC Pore, antibiotic alone
[16] = strain ΔtolC Pore, antibiotic in combination with NMP
[17] = ΔtolC Pore, antibiotic alone (PAβN checkerboard)
[18] = ΔtolC Pore, antibiotic in combination with PAβN
[19] = strain ΔtolC, antibiotic in combination with NMP
[20] = ΔtolC, antibiotic alone (PAβN checkerboard)
[21] = ΔtolC, antibiotic in combination with PAβN

## CC(=O)NC[C@H]1CN(c2ccc(N3CCOCC3)c(F)c2)C(=O)O1 [linezolid]
EKO-35 araC::acrBD408A
  Fold change of MICs: 1 fold
  MIC: 7.81 µg/mL
EKO-35 araC::acrB
  Fold change of MICs: 32 fold
  MIC: 250 µg/mL
EKO-35 araC::acrD
  Fold change of MICs: 1 fold
  MIC: 7.81 µg/mL
EKO-35 araC::acrEF
  Fold change of MICs: 2 fold
  MIC: 15.6 µg/mL
EKO-35 araC::emrAB
  Fold change of MICs: 1 fold
  MIC: 3.91 µg/mL
EKO-35 araC::emrKY
  Fold change of MICs: 1 fold
  MIC: 3.91 µg/mL
EKO-35 araC::macAB
  Fold change of MICs: 1 fold
  MIC: 3.91 µg/mL
[1]
  Fold change of MICs: 2 fold
  MIC: 15.6 µg/mL
EKO-35 acrBD408A; [2]
  Effect: Additive
  FICI: 0.516
EKO-35 acrBD408A; [3]
  Effect: Additive
  FICI: 0.750
EKO-35 acrBD408A; [4]
  MICb Alone: 16 µg/mL
EKO-35 acrBD408A; [5]
  MICb Combined: 4 µg/mL
EKO-35 acrBD408A; [6]
  Effect: Additive (additive (FICI >0.5-1.0))
  FICI: 0.516
EKO-35 acrBD408A; [7]
  MICb Alone: 16 µg/mL
EKO-35 acrBD408A; [8]
  MICb Combined: 8 µg/mL
EKO-35; EKO-35, NMP + antibiotic
  Effect: Additive
  FICI: 0.531
EKO-35; EKO-35, PAβN + antibiotic
  Effect: Additive
  FICI: 0.750
EKO-35; [9]
  MICb Alone: 16 µg/mL
EKO-35; [10]
  MICb Combined: 4 µg/mL
EKO-35
  interaction of PAβN in combination with the labelled antibiotic (FICI): not synergistic
EKO-35; [11]
  Effect: Additive (additive (FICI >0.5-1.0))
  FICI: 0.531
EKO-35; [12]
  MICb Alone: 16 µg/mL
EKO-35; [13]
  MICb Combined: 8 µg/mL
ΔtolC-Pore; [14]
  Effect: — (indifferent (FICI >1.0))
  FICI: 1.000
ΔtolC-Pore; [15]
  MICb Alone: 8 µg/mL
ΔtolC-Pore; [16]
  MICb Combined: 4 µg/mL
ΔtolC-Pore; ΔtolC Pore, NMP + antibiotic
  FICI: 1.000
ΔtolC-Pore; ΔtolC Pore, PAβN + antibiotic
  Effect: Additive
  FICI: 0.563
ΔtolC-Pore; [17]
  MICb Alone: 8 µg/mL
ΔtolC-Pore; [18]
  MICb Combined: 0.5 µg/mL
ΔtolC; strain ΔtolC, NMP + antibiotic
  Effect: — (indifferent (FICI >1.0))
  FICI: 2.000
ΔtolC; strain ΔtolC, antibiotic alone
  MICb Alone: 8 µg/mL
ΔtolC; [19]
  MICb Combined: 8 µg/mL
ΔtolC; ΔtolC, NMP + antibiotic
  FICI: 2.000
ΔtolC; ΔtolC, PAβN + antibiotic
  Effect: Additive
  FICI: 0.750
ΔtolC; [20]
  MICb Alone: 8 µg/mL
ΔtolC; [21]
  MICb Combined: 2 µg/mL

## CO[C@@H]1[C@@H](OC(N)=O)[C@@H](O)[C@H](Oc2ccc3c(O)c(NC(=O)c4ccc(O)c(CC=C(C)C)c4)c(=O)oc3c2C)OC1(C)C [novobiocin]
EKO-35 araC::acrBD408A
  Fold change of MICs: 1 fold
  MIC: 3.12 µg/mL
EKO-35 araC::acrB
  Fold change of MICs: 128 fold
EKO-35 araC::acrD
  efflux pump-mediated resistance vs EKO-35: confirmed
  Fold change of MICs: 64 fold
  MIC: 200 µg/mL
EKO-35 araC::acrEF
  Fold change of MICs: 128 fold
EKO-35 araC::emrAB
  Fold change of MICs: 8 fold
  MIC: 25 µg/mL
EKO-35 araC::emrKY
  Fold change of MICs: 1 fold
  MIC: 3.12 µg/mL
EKO-35 araC::macAB
  Fold change of MICs: 1 fold
  MIC: 1.56 µg/mL
[1]
  Fold change of MICs: 8 fold
  MIC: 25 µg/mL
EKO-35 acrBD408A; [3]
  Effect: Synergistic
  FICI: 0.375
EKO-35 acrBD408A; [4]
  MICb Alone: 8 µg/mL
EKO-35 acrBD408A; [5]
  MICb Combined: 2 µg/mL
EKO-35; EKO-35, PAβN + antibiotic
  Effect: Synergistic
  FICI: 0.375
EKO-35; [9]
  MICb Alone: 4 µg/mL
EKO-35; [10]
  MICb Combined: 1 µg/mL
EKO-35
  interaction of PAβN in combination with the labelled antibiotic (FICI): synergized
ΔtolC-Pore; ΔtolC Pore, PAβN + antibiotic
  Effect: Additive
  FICI: 0.740
ΔtolC-Pore; [17]
  MICb Alone: 0.25 µg/mL
ΔtolC-Pore; [18]
  MICb Combined: 0.06 µg/mL
ΔtolC; ΔtolC, PAβN + antibiotic
  Effect: Synergistic
  FICI: 0.500
ΔtolC; [20]
  MICb Alone: 2 µg/mL
ΔtolC; [21]
  MICb Combined: 0.5 µg/mL

## Cc1onc(-c2ccccc2)c1C(=O)N[C@@H]1C(=O)N2[C@@H]1SC(C)(C)[C@@H]2C(=O)O [oxacillin]
EKO-35 araC::acrBD408A
  MIC: 1.25 µg/mL
EKO-35 araC::acrB
  MIC: 160 µg/mL
EKO-35 araC::acrD
  efflux pump-mediated resistance vs EKO-35: confirmed
  MIC: 160 µg/mL
EKO-35 araC::acrEF
  MIC: 160 µg/mL
EKO-35 araC::emrAB
  MIC: 1.25 µg/mL
EKO-35 araC::emrKY
  MIC: 0.625 µg/mL
EKO-35 araC::macAB
  MIC: 0.625 µg/mL
[1]
  MIC: 20 µg/mL
EKO-35 acrBD408A; [2]
  FICI: 2.000
EKO-35 acrBD408A; [3]
  Effect: Synergistic
  FICI: 0.185
EKO-35 acrBD408A; [4]
  MICb Alone: 1 µg/mL
EKO-35 acrBD408A; [5]
  MICb Combined: 0.06 µg/mL
EKO-35 acrBD408A; [6]
  Effect: — (indifferent (FICI >1.0))
  FICI: 2.000
EKO-35 acrBD408A; [7]
  MICb Alone: 0.13 µg/mL
EKO-35 acrBD408A; [8]
  MICb Combined: 0.13 µg/mL
EKO-35; EKO-35, NMP + antibiotic
  Effect: Additive
  FICI: 0.510
EKO-35; EKO-35, PAβN + antibiotic
  Effect: Synergistic
  FICI: 0.323
EKO-35; [9]
  MICb Alone: 0.5 µg/mL
EKO-35; [10]
  MICb Combined: 0.13 µg/mL
EKO-35
  interaction of PAβN in combination with the labelled antibiotic (FICI): synergized
EKO-35; [11]
  Effect: Additive (additive (FICI >0.5-1.0))
  FICI: 0.510
EKO-35; [12]
  MICb Alone: 0.5 µg/mL
EKO-35; [13]
  MICb Combined: 0.13 µg/mL
ΔtolC-Pore; [14]
  Effect: Additive (additive (FICI >0.5-1.0))
  FICI: 0.531
ΔtolC-Pore; [15]
  MICb Alone: 1 µg/mL
ΔtolC-Pore; [16]
  MICb Combined: 0.5 µg/mL
ΔtolC-Pore; ΔtolC Pore, NMP + antibiotic
  Effect: Additive
  FICI: 0.531
ΔtolC-Pore; ΔtolC Pore, PAβN + antibiotic
  Effect: Additive
  FICI: 0.740
ΔtolC-Pore; [17]
  MICb Alone: 0.25 µg/mL
ΔtolC-Pore; [18]
  MICb Combined: 0.06 µg/mL
ΔtolC; strain ΔtolC, NMP + antibiotic
  Effect: Additive (additive (FICI >0.5-1.0))
  FICI: 0.531
ΔtolC; strain ΔtolC, antibiotic alone
  MICb Alone: 1 µg/mL
ΔtolC; [19]
  MICb Combined: 0.5 µg/mL
ΔtolC; ΔtolC, NMP + antibiotic
  Effect: Additive
  FICI: 0.531
ΔtolC; ΔtolC, PAβN + antibiotic
  Effect: Synergistic
  FICI: 0.313
ΔtolC; [20]
  MICb Alone: 1 µg/mL
ΔtolC; [21]
  MICb Combined: 0.25 µg/mL
